biological target: Ba/F3-TEL-FGFR2 (Homo sapiens, UniProt P21802+P41212); assay: Cell viability (proliferation inhibition) of Ba/F3 cells, CellTiter Glo; conditions: read-out: Ba/F3 cell FGFR2 (IC50 nM), 72 h
Sequence (P21802 481-770 limits assumed, one chain of several): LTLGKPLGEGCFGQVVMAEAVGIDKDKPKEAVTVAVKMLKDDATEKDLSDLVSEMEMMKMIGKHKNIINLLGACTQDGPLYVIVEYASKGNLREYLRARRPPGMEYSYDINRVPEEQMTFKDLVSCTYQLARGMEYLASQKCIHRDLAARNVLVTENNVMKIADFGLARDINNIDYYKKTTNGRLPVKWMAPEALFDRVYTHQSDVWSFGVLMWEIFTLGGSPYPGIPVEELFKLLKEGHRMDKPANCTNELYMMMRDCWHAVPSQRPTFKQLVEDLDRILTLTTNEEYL

Compared with C=C(C)C(=O)N1CC=C(c2c(-c3ccc(N=S4(=O)CCCCC4)cc3)c3c(N)ncnc3n2C)CC1 [Compound 3, 1-(4-(4-amino-7-methyl-5-(4-(1-oxotetrahydro-2H-1λ^6-thiopyran-1-imino)phenyl)-7H-pyrrolo[2,3-d]pyrimidin-6-yl)-3,6-dihydropyridine-1(2H)-yl)2-methylprop-2-enyl-1-one], C=C(C)C(=O)Nc1ccc(-c2c(-c3ccc(N=S4(=O)CCCCC4)cc3F)c3c(N)ncnc3n2C)cc1 [Compound 43, N-(4-(4-amino-5-(2-fluoro-4-((1-oxotetrahydro-2H-1λ^6-thiopyran-1-ylidene)amino)phenyl) -7-methyl-7H-pyrrolo [2,3-d]pyrimidin-6-yl)phenyl) methacrylamide] is 49-fold lower in IC50: 700 nM for the first, 14.2 nM for the second.

First: C=C(C)C(=O)Nc1ccc(-c2c(-c3ccc(N=S4(=O)CCCCC4)c(OC)c3)c3c(N)ncnc3n2C)c(F)c1 [Compound 5, N-(4-(4-amino-5-(3-methoxy-4-(1-oxotetrahydro-2H-1λ^6-thiopyran-1-imino)phenyl)-7-methyl-7H-pyrrolo [2,3-d]pyrimidin-6-yl)-3-fluorophenyl) methacrylamide]
Second: C=C(C)C(=O)Nc1ccc(-c2c(-c3ccc(N=S4(=O)CCCCC4)c(F)c3)c3c(N)ncnc3n2C)c(OC)c1 [Compound 14, N-(4-(4-amino-5-(3-fluoro-4-((1-oxotetrahydro-2H-1 λ^6-thiopyran-1-ylidene)amino)phenyl)-7-methyl-7H-pyrrolo[2,3-d]pyrimidin-6-yl)-3-methoxyphenyl) methacrylamide]
The IC50 of the first is 3-fold higher: 29.3 nM for the first, 9.9 nM for the second.

Compared with C=C(C)C(=O)Nc1ccc(-c2c(-c3ccc(N=S4(=O)CCC(F)(F)CC4)cc3)c3c(N)ncnc3n2C)c(F)c1 [Compound 6, N-(4-(4-amino-5-(4-(4,4-difluoro-1-oxotetrahydro-2H-λ^6-thiopyran-1-imino)phenyl) -7-methyl-7H-pyrrolo [2,3-d]pyrimidin-6-yl) -3-fluorophenyl) methacrylamide], C=C(C)C(=O)Nc1ccc(-c2c(-c3ccc(N=S4(=O)CCOCC4)c(F)c3)c3c(N)ncnc3n2C)cc1 [Compound 41] is 13-fold higher in IC50: 9.3 nM for the first, 124 nM for the second. The first is the more potent here.

Compared with C=C(C)C(=O)Nc1ccc(-c2c(-c3ccc(N=S4(=O)CC(OC)(OC)C4)c(F)c3)c3c(N)ncnc3n2C)cc1 [Compound 10], C=C(C)C(=O)Nc1ccc(-c2c(-c3ccc(N=S4(=O)CC5(COC5)C4)c(F)c3)c3c(N)ncnc3n2C)cc1 [Compound 11] is 1.6-fold higher in IC50: 107 nM for the first, 172 nM for the second. The first is the more potent here.

C=C(C)C(=O)Nc1ccc(F)c(-c2c(-c3ccc(N=S4(=O)CCCCC4)c(F)c3)c3c(N)ncnc3n2C)c1 [Compound 12, N-(3-(4-amino-5-(3-fluoro-4-((1-oxotetrahydro-2H-1 λ^6-thiopyran-1-ylidene)amino)phenyl) -7-methyl-7H-pyrrolo [2,3-d]pyrimidin-6-yl) -4-fluorophenyl) methacrylamide] and C=C(C)C(=O)Nc1cc(-c2c(-c3ccc(N=S4(=O)CCCCC4)c(F)c3)c3c(N)ncnc3n2C)ccc1F [Compound 38, N-(5-(4-amino-5-(3-fluoro-4-((1-oxotetrahydro-2H-1 λ^6-thiopyran-1-ylidene)amino)phenyl) -7-methyl-7H-pyrrolo [2,3-d]pyrimidin-6-yl) -2-fluorophenyl) methacrylamide] are within 1.5-fold of each other in IC50: 276 nM for the first, 247 nM for the second.

First: C=CC(=O)Nc1ccc(-c2c(-c3ccc(N=S4(=O)CCCCC4)c(F)c3)c3c(N)ncnc3n2C)cc1 [Compound 13, N-(4-(4-amino-5-(3-fluoro-4-((1-oxotetrahydro-2H-1 λ^6-thiopyran-1-ylidene)amino)phenyl) -7-methyl-7H-pyrrolo [2,3-d]pyrimidin-6-yl)phenyl) acrylamide]
Second: C/C=C/C(=O)Nc1ccc(-c2c(-c3ccc(N=S4(=O)CCCCC4)c(F)c3)c3c(N)ncnc3n2C)cc1 [Compound 15, (E)-N-(4-(4-amino-5-(3-fluoro-4-((1-oxotetrahydro-2H-1λ^6-thiopyran-1-ylidene)amino)phenyl)-7-methyl-7H-pyrrolo [2,3-d]pyrimidin-6-yl) -phenyl)-2-butenamide]
The IC50 of the first is 26-fold lower: 0.6 nM for the first, 15.4 nM for the second. The first is the more potent here.

Going from CN(C)C/C=C/C(=O)Nc1ccc(-c2c(-c3ccc(N=S4(=O)CCCCC4)c(F)c3)c3c(N)ncnc3n2C)cc1 [Compound 16, (E)-N-(4-(4-amino-5-(3-fluoro-4-((1-oxotetrahydro-2H-1 λ^6-thiopyran-1-ylidene)amino)phenyl) -7-methyl-7H-pyrrolo [2,3-d]pyrimidin-6-yl) - phenyl) -4-(dimethylamino) -2-butenamide] to C=C(COC)C(=O)Nc1ccc(-c2c(-c3ccc(N=S4(=O)CCCC4)c(F)c3)c3c(N)ncnc3n2C)cc1 [Compound 18, N-(4-(4-amino-5-(3-fluoro-4-((1-oxotetrahydro-1 λ^6-thiophene-1-ylidene)amino)phenyl) -7-methyl-7H-pyrrolo [2,3-d]pyrimidin-6-yl)phenyl) -2-(methoxymethyl) acrylamide], the IC50 falls from 50.1 nM to 21.5 nM (2.3-fold).

First: C=C(C)C(=O)Nc1ccc(-c2c(-c3ccc(N=S4(=O)CCCCC4)nc3)c3c(N)ncnc3n2C)cc1 [Compound 17, N-[4-(4-amino-7-methyl-5-(6-((1-oxotetrahydro-2H-1 λ^6-thiopyran-1-ylidene)amino)pyridin-3-yl)pyrrolo [2,3-d]pyrimidin-6-yl)phenyl) methacrylamide]
Second: C=C(C)C(=O)Nc1ccc(-c2c(-c3ccc(N=S4(=O)CCCCC4)c(C)c3)c3c(N)ncnc3n2C)cc1 [Compound 34, N-(4-(4-amino-7-methyl-5-(3-methyl-4-((1-oxotetrahydro-2H-1λ^6-thiopyran-1-ylidene)amino)phenyl) -7H-pyrrolo [2,3-d]pyrimidin-6-yl)phenyl) methacrylamide]
The IC50 of the first is 260-fold higher: 4620 nM for the first, 17.9 nM for the second.

Compared with CC#CC1=Nc2ccc(-c3c(-c4ccc(N=S(C)(C)=O)c(F)c4)c4c(N)ncnc4n3C)cc2C(C)(C)O1 [Compound 19], CC#CC(=O)Nc1ccc(-c2c(-c3ccc(N=S(C)(C)=O)c(F)c3)c3c(N)ncnc3n2C)cc1C(C)(C)O [Compound 20] is 34-fold lower in IC50: 2980 nM for the first, 86.7 nM for the second. The second is the more potent here.

C=C(C)C(=O)Nc1ccc(-c2c(-c3ccc(N=S4(=O)CCCC4)c(F)c3)c3c(N)ncnc3n2C)c(C#N)c1 [Compound 25, N-(4-(4-amino-5-(3-fluoro-4-((1-oxotetrahydro-1 λ^6-thiophene-1-ylidene)amino)phenyl) -7-methyl-7H-pyrrolo [2,3-d]pyrimidin-6-yl) -3-cyanophenyl) methacrylamide] and C=C(C)C(=O)Nc1ccc(-c2c(-c3ccc(N=S4(=O)CCCCC4)c(F)c3)c3c(N)ncnc3n2C)cc1F [Compound 37, N-(4-(4-amino-5-(3-fluoro-4-((1-oxotetrahydro-2H-1 λ^6-thiopyran-1-ylidene)amino)phenyl) -7-methyl-7H-pyrrolo [2,3-d]pyrimidin-6-yl) -2-fluorophenyl) methacrylamide] are within 1.5-fold of each other in IC50: 38.7 nM for the first, 32 nM for the second.

First: C=C(C)C(=O)Nc1ccc(-c2c(-c3cc(F)c(N=S4(=O)CCCC4)c(F)c3)c3c(N)ncnc3n2C)cc1 [Compound 27, N-(4-(4-amino-5-(3,5-difluoro-4-((1-oxotetrahydro-1 λ^6-thiophene-1-ylidene)amino)phenyl) -7-methyl-7H-pyrrolo [2,3-d]pyrimidin-6-yl)phenyl) methacrylamide]
Second: C=C(C)C(=O)Nc1ccc(-c2c(-c3ncc(N=S4(=O)CCCCC4)cc3F)c3c(N)ncnc3n2C)cc1 [Compound 36, N-(4-(4-amino-5-(3-fluoro-5-((1-oxotetrahydro-2H-1 λ^6-thiopyran-1-ylidene)amino)pyridin-2-yl) -7-methyl-7H-pyrrole [2,3-d]pyrimidin-6-yl)phenyl) methacrylamide]
The IC50 of the first is 2.1-fold lower: 26 nM for the first, 53.5 nM for the second. The first is the more potent here.

Going from C=C(C)C(=O)Nc1ccc(-c2c(-c3ccc(N=S(=O)(N(C)C)C(F)(F)F)cc3)c3c(N)ncnc3n2C)cc1 (stereo not shown) [Compound 28] to C=C(C)C(=O)Nc1ccc(F)c(-c2c(-c3ccc(N=S(=O)(N(C)C)C(F)(F)F)cc3)c3c(N)ncnc3n2C)c1 (stereo not shown) [Compound 39], the IC50 rises from 0.9 nM to 10.2 nM (11-fold).

Compared with C=C(C)C(=O)Nc1ccc(-c2c(-c3ccc(N=S4(=O)CCN(C)CC4)c(F)c3)c3c(N)ncnc3n2C)cc1 [Compound 30, N-(4-(4-amino-5-(3-fluoro-4-((4-methyl-1-oxo-1 λ^6-thiomorpholin-1-ylidene)amino)phenyl) -7-methyl-7H-pyrrolo [2,3-d]pyrimidin-6-yl)phenyl) methacrylamide], C=C(C)C(=O)Nc1ccc(-c2c(-c3ccc(N=S4(=O)CCCCC4)c(Cl)c3)c3c(N)ncnc3n2C)cc1 [Compound 40, N-(4-(4-amino-5-(3-chloro-4-((1-oxotetrahydro-2H-1λ^6 - thiopyran-1-ylidene)amino)phenyl) -7-methyl-7H-pyrrolo [2,3-d]pyrimidin-6-yl)phenyl) methacrylamide] is 190-fold lower in IC50: 1440 nM for the first, 7.7 nM for the second. The second is the more potent here.

Going from C=C(C)C(=O)Nc1ccc(-c2c(-c3ccc(N=S(C)(C)=O)c(F)c3)c3c(N)ncnc3n2C)c(F)c1 [Compound 42] to C=C(C)C(=O)Nc1ccc(-c2c(-c3ccc(N=S(C)(C)=O)c(F)c3)c3c(N)ncnc3n2C)cc1 [Compound 44], the IC50 rises from 32.9 nM to 216 nM (6.6-fold).

Going from C=C(C)C(=O)Nc1ccc(-c2c(-c3ccc(N=S(C)(C)=O)cc3)c3c(N)ncnc3n2C)cc1 [Compound 45] to C=C(C)C(=O)Nc1ccc(-c2c(-c3ccc(N=S(=O)(N4CCCC4)C(F)(F)F)c(F)c3)c3c(N)ncnc3n2C)cc1 (stereo not shown) [Compound 47, N-(4-(4-amino-5-(3-fluoro-4-((oxo (pyrrolidine-1-yl) (trifluoromethyl) - λ^6-sulfanylidene)amino)phenyl) -7-methyl-7H-pyrrolo [2,3-d]pyrimidin-6-yl)phenyl) methacrylamide], the IC50 falls from 83.1 nM to 2.7 nM (31-fold). The second is the more potent here.

Work on C=C(C)C(=O)N(C)c1ccc(-c2c(-c3ccc(N=S4(=O)CCCCC4)c(F)c3)c3c(N)ncnc3n2C)cc1 [Compound 46, N-(4-(4-amino-5-(3-fluoro-4-((1-oxotetrahydro 2H-1λ^6 - thiopyran-1-ylidene)amino)phenyl) -7-methyl-7H-pyrrolo [2,3-d]pyrimidin-6-yl)phenyl) - N-methylmethacrylamide] yielded an IC50 of 162 nM.
